Assay results as given in patent US20230414509A1, “HYDROPHOBIC DRUGS IN ORGANIC CORE HIGH DENSITY LIPOPROTEIN (HDL) NANOPARTICLES” (NORTHWESTERN UNIVERSITY, priority 2020, published 2023).

How the values were obtained:
[1] = tested on: HH cells (cutaneous T cell lymphoma); assay: Cytotoxicity IC50, MTS assay, HH cells; type: cell-based; details: Homo sapiens, 72 hours after treatment, read-out: IC-50 values (in nM), HH
Protocol: (§1) Specifically, the F7-loaded HDL NPs were tested for cytoxicity against two CTCL cell lines (HH and Hut78), a clear cell renal cell carcinoma cell line (786-O), an anaplastic large cell lymphoma (ALCL) cell line (SR-786), a breast adenocarcinoma cell line (MDA MB 231), a T-cell lymphoma cell line (Jurkat), a myeloma cell line (U266B1), and six prostate cancer cell lines (PC-3, Du-145, CWRR1 WT (wild-type), CWRR1 EnzR (Enzalutamide resistant), LnCap WT (wild type), and LnCap EnzR (Enzalutamide resistant)). The HH and HuT78 cell lines are SR-B1 positive and express p38γ. The SR-786, 786-O, and MDA MB 231 cell lines are also known to be SR-B1 positive. […] The PC-3 and Du-145 cell lines are SR-B1 positive, androgen receptor negative and PTEN null. The CWRR1 WT cell line is SR-B1 positive, androgen receptor positive and PTEN wild type. The CWRR1 EnzR, which is also SR-B1 positive, androgen receptor positive and PTEN wild type, is a prostate cancer cell line derived from patient with castration recurrent disease that is resistant to enzalutamide (a commonly used therapy for castration-resistant prostate cancer patients). The LnCap WT cell line is SR-B1 positive, androgen receptor positive and PTEN null. The LnCap EnzR, which is also SR-B1 positive, androgen receptor positive and PTEN null, is a prostate cancer cell line derived from a lymph node metastasis that is resistant to enzalutamide. […]

[2] = tested on: HuT78 cells (cutaneous T cell lymphoma); assay: Cytotoxicity IC50, MTS assay, HuT78 cells; type: cell-based; details: Homo sapiens, 72 hours after treatment, read-out: IC-50 values (in nM), HuT78
Protocol: as §1

[3] = tested on: SR-786 cells (anaplastic large cell lymphoma); assay: Cytotoxicity IC50, MTS assay, SR-786 cells; type: cell-based; details: 72 hours after treatment, read-out: IC-50 values (in nM), SR-786
Protocol: as §1

[4] = tested on: 786-O cells (clear cell renal cell carcinoma); assay: Cytotoxicity IC50, MTS assay, 786-O cells; type: cell-based; details: Homo sapiens, 786-0, 72 hours after treatment, read-out: IC-50 values (in nM), 786-O
Protocol: as §1

[5] = tested on: MDA MB 231 cells (breast adenocarcinoma); assay: Cytotoxicity IC50, MTS assay, MDA MB 231 cells; type: cell-based; details: Homo sapiens, 72 hours after treatment, read-out: IC-50 values (in nM), MDA MB 231
Protocol: as §1

[6] = tested on: Jurkat cells (T-cell lymphoma); assay: Cytotoxicity IC50, MTS assay, Jurkat cells; type: cell-based; details: Homo sapiens, Jurkat cells (SR-B1 negative), 72 hours after treatment, read-out: IC-50 values (in nM), Jurkat
Protocol: as §1

[7] = tested on: U266B1 cells (myeloma); assay: Cytotoxicity IC50, MTS assay, U266B1 cells; type: cell-based; details: U266B1 cells (SR-B1 negative), 72 hours after treatment, read-out: IC-50 values (in nM), U266B1
Protocol: as §1

[8] = tested on: PC-3 cells (prostate cancer); assay: Cytotoxicity IC50, MTS assay, PC-3 cells; type: cell-based; details: Homo sapiens, 72 hours after treatment, read-out: IC-50 values (in nM), PC-3
Protocol: as §1

[9] = tested on: Du-145 cells (prostate cancer); assay: Cytotoxicity IC50, MTS assay, Du-145 cells; type: cell-based; details: Homo sapiens, 72 hours after treatment, read-out: IC-50 values (in nM), Du-145
Protocol: as §1

[10] = tested on: CWRR1 WT cells (prostate cancer); assay: Cytotoxicity IC50, MTS assay, CWRR1 WT cells; type: cell-based; details: 72 hours after treatment, read-out: IC-50 values (in nM), CWRR1 WT
Protocol: as §1

[11] = tested on: CWRR1 EnzR cells (prostate cancer, Enzalutamide resistant); assay: Cytotoxicity IC50, MTS assay, CWRR1 EnzR cells; type: cell-based; details: 72 hours after treatment, read-out: IC-50 values (in nM), CWRR1 EnzR
Protocol: as §1

[12] = tested on: LnCap WT cells (prostate cancer); assay: Cytotoxicity IC50, MTS assay, LnCap WT cells; type: cell-based; details: Homo sapiens, 72 hours after treatment, read-out: IC-50 values (in nM), LnCap WT
Protocol: as §1

[13] = tested on: LnCap EnzR cells (prostate cancer, Enzalutamide resistant); assay: Cytotoxicity IC50, MTS assay, LnCap EnzR cells; type: cell-based; details: Homo sapiens, 72 hours after treatment, read-out: IC-50 values (in nM), LnCap EnzR
Protocol: as §1

[14] = tested on: Hut78 cells; assay: Cytotoxic impact of F7 on Hut78 cells (screening); type: cell-based; details: Homo sapiens
From the text: Cutaneous T cell lymphoma (CTCL) is a disfiguring and aggressive cancer. For patients with advanced disease, current therapies are inadequate, and outcome is poor. Incomplete understanding of CTCL molecular regulators has limited development of effective targeted therapies. One candidate regulator is p38gamma (p38γ), a mitogen-activated protein kinase downstream from the T cell receptor that is crucial for T cell activity and growth. […] In addition, only p38γ has been identified as essential protein for CTCL growth among the four p38 isoforms by gene knockdown experiments, which makes p38γ an ideal target for the therapeutic drug development in this particular T cell lymphoma.

[15] = tested on: 780 cells (renal cancer); assay: Cytotoxicity IC50 in renal cancer cell line 780; type: cell-based
Protocol: (§2) A database analysis was performed and a survival curve for the renal cancer was found showing a separation (p=0.000084) among summarized 877 renal cancer patients by p38γ gene expression level (high vs low). […] All 8 renal cancer cell lines have higher p38γ protein expression level than that of normal HK2 renal cells by western blot experiments (FIG. 3B).

[16] = tested on: ACHN cells (renal cancer); assay: Cytotoxicity IC50 in renal cancer cell line ACHN; type: cell-based; details: Homo sapiens
Protocol: as §2

[17] = tested on: HH cell line (SR-B1 positive); assay: 2 hr pulse treatment, MTS viability, SR-B1 positive HH cell line; type: cell-based; details: free F7 250 nM or 2.5 μM for 2 hrs, washed, 72 hours, MTS assay
Protocol: (§3) Following treatment, the cells were washed with fresh media and plated into 96-well plates. The cells were then incubated for 72 hours prior to viability assay (MTS assay).

[18] = tested on: U266B1 cell line (SR-B1 negative); assay: 2 hr pulse treatment, MTS viability, SR-B1 negative U266B1 cell line; type: cell-based; details: free F7 250 nM or 2.5 μM for 2 hrs, washed, 72 hours, MTS assay
Protocol: as §3

[19] = tested on: HepG2 cells; assay: Cell-based toxicity screen, HepG2 cells, MTS viability; details: F7 1 μM for 2 hrs, washed, 72 hours, MTS assay

Cc1ccc([N+](=O)[O-])cc1S(=O)(=O)N(C)/N=C/c1cnc2ccc(Br)cn12.Cl [F7, PIK75]
IC50 [1]: 41.3 nM | IC50 [2]: 45.6 nM | IC50 [3]: 12.6 nM | IC50 [4]: 283 nM | IC50 [5]: 688 nM | IC50 [6]: 116 nM | IC50 [7]: 44.1 nM | IC50 [8]: 28.1 nM | IC50 [9]: 84.7 nM | IC50 [10]: 15.9 nM | IC50 [11]: 24.7 nM | IC50 [12]: 53 nM | IC50 [13]: 75.5 nM | IC50 [14]: 0.033 µM | IC50 [15]: 0.033 µM | IC50 [16]: 0.017 µM | cytotoxicity, HH cell line, free F7 [17]: unable to cause cytotoxicity | cytotoxicity, U266B1 cell line, free F7 [18]: unable to cause cytotoxicity | cytotoxicity, HepG2 cells, free F7 [19]: mild levels of cytotoxicity
